Counter-ions that a name gives are not always drawn.
Columns and labels:
[1] = biological target: T1, horseradish peroxidase (HRP) tagged delF508-CFTR (Homo sapiens, UniProt P13569, DEL508-508); assay: Measurement of delF508-CFTR-HRP surface expression in CFBE41o- cells; format: cell-based; settings: delF508-CFTR-HRP surface expression, CFBE41o- cells; for Emax: read-out: DelF508-CFTR-HRP Amax %; for EC50: read-out: DelF508-CFTR-HRP EC50;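 on DelF508-CFTR-HRP Amax %: percent efficacy relative to reference corrector lumacaftor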
T1 construct: expressed in transfected cells
T1 sequence (P13569 with tags, fused parts or gaps DEL508-508): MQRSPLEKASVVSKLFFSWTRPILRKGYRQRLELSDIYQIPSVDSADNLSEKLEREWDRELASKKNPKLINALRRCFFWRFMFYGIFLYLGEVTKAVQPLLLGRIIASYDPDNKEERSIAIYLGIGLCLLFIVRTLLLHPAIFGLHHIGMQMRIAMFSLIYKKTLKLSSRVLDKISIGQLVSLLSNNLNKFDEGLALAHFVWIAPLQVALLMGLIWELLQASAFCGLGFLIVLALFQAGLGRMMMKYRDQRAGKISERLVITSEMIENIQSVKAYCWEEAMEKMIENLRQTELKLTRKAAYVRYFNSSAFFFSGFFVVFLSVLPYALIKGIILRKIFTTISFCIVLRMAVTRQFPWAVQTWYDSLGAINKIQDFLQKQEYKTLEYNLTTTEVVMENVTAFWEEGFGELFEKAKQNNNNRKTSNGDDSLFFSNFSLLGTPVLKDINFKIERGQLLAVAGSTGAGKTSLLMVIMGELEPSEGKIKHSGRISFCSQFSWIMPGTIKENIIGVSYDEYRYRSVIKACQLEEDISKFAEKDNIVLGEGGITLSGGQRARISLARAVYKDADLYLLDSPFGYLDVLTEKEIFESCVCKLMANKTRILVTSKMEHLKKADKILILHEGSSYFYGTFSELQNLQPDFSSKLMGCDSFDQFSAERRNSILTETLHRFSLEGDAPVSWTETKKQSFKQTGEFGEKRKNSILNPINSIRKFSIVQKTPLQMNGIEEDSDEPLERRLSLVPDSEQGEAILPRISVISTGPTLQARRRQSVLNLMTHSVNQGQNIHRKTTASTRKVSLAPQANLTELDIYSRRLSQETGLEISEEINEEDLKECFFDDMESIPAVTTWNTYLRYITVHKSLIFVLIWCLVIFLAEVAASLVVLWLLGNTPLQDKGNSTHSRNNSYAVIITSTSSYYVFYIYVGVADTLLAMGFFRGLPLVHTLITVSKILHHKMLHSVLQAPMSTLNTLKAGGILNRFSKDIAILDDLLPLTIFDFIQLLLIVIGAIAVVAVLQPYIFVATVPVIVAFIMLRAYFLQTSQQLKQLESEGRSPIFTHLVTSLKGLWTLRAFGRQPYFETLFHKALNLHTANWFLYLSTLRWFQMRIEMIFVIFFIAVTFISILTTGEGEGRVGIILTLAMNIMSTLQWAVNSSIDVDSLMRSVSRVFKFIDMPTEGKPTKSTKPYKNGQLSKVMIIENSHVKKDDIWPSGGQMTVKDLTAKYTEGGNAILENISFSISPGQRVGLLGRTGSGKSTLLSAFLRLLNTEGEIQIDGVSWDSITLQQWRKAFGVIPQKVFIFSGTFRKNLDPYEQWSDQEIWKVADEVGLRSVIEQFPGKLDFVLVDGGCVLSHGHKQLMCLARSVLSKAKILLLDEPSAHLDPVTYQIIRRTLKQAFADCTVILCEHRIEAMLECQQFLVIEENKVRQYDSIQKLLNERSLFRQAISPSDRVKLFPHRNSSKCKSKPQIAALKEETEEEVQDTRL
Method in brief: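 CFBE41o- bronchial epithelial cells stably expressing delF508-CFTR with HRP in the fourth extracellular loop; expression induced 48h with 500 ng/mL doxycycline, then compounds added (top 10 μM, 10-point 3-fold series, ≤0.5% DMSO) for 24h at 37° C. Surface HRP measured by luminescence with cell-impermeant substrate; EC50 from logistic fit of triplicates, plate-normalized to lowest concentration; efficacy also relative to a reference corrector.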

[2] = biological target: T2, delF508-CFTR (Homo sapiens, UniProt P13569, DEL508-508); assay: Measurement of delF508-CFTR functional activity in primary human bronchial epithelial cells (HBECs) using Multi-Transepithelial Clamp Circuit (MTECC-24) assay; format: cell-based; settings: primary CF HBECs; for MTECC24 CFHBEC- Amax %: test compound added 24h before assay plus potentiator, relative to reference combination (2 μM corrector + 0.5 μM potentiator); for EC50: test compound added 24h before assay, in the presence of potentiator, mean of at least two replicates, read-out: MTECC24 CFHBEC- EC50
T2 construct: functional activity of the CFTR channel (Chloride ion transport) in patient derived primary human bronchial epithelial cells; host or cells: patient-derived primary human bronchial epithelial cells (delF508-CFTR)
T2 sequence (P13569 with tags, fused parts or gaps DEL508-508): as above
Method in brief: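 Patient-derived primary delF508-CFTR HBECs, differentiated at air-liquid interface ~2 weeks, treated basolaterally with compound for 24 h, then apical and basolateral compound in HEPES pH 7.4 assay medium. Equivalent short-circuit current (Ieq) recorded on MTECC-24 with sequential amiloride, forskolin, potentiator and INH-172; normalized to 0.1% DMSO, EC50 from curve fit.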

Compound	Emax [1]	EC50 [1]	MTECC24 CFHBEC- Amax % [2]	EC50 [2]
Cc1cccc(C)c1-c1nc(NS(=O)(=O)c2cccc(N3CCn4cc(C(F)(F)F)nc4C3)n2)ccc1Cl [Example 199, N-(5-chloro-6-(2,6-dimethylphenyl)pyridin-2-yl)-6-(2-(trifluoromethyl)-5,6-dihydroimidazo[1,2-a]pyrazin-7(8H)-yl)pyridine-2-sulfonamide]	700%	2220 nM	87.1%	38.3 nM
Cc1ccc(F)cc1-c1nc(NS(=O)(=O)c2cccc(N3CC4CCC3CN4)n2)ccc1C(F)(F)F (stereo not drawn) [Example 201, 6-(2,5-diazabicyclo[2.2.2]octan-2-yl)-N-(6-(5-fluoro-2-methylphenyl)-5-(trifluoromethyl)pyridin-2-yl)pyridine-2-sulfonamide Hydrochloride]	570%	2620 nM	75.9%	135 nM
Cc1ccccc1-c1nc(NS(=O)(=O)c2cccc(N3C[C@@H]4C[C@H]3CN4)n2)ccc1C(F)(F)F [Example 203, 6-((1S,4S)-2,5-diazabicyclo[2.2.1]heptan-2-yl)-N-(6-(o-tolyl)-5-(trifluoromethyl)pyridin-2-yl)pyridine-2-sulfonamide hydrochloride]	298%	2980 nM	80.9%	23.3 nM
Cc1ccccc1-c1nc(NS(=O)(=O)c2cccc(N3CC(O)(C(F)(F)F)C3)n2)ccc1C(F)(F)F [Example 204, 6-(3-hydroxy-3-(trifluoromethyl)azetidin-1-yl)-N-(6-(o-tolyl)-5-(trifluoromethyl)pyridin-2-yl)pyridine-2-sulfonamide]	943%	1730 nM	90.6%	5.7 nM
Cc1cccc(C)c1-c1cc(C(F)(F)F)cc(NS(=O)(=O)c2cccc(N3CC(O)C3)n2)n1 [Example 205, N-(6-(2,6-dimethylphenyl)-4-(trifluoromethyl)pyridin-2-yl)-6-(3-hydroxyazetidin-1-yl)pyridine-2-sulfonamide]	592%	1290 nM	66.8%	1.8 nM
Cc1ccccc1-c1nc(NS(=O)(=O)c2cccc(N3CC(C)(O)C3)n2)ccc1Br [Example 207, N-(5-bromo-6-(o-tolyl)pyridin-2-yl)-6-(3-hydroxy-3-methylazetidin-1-yl)pyridine-2-sulfonamide]	503%	2270 nM	78.0%	19.4 nM
O=S(=O)(Nc1ccc(C(F)(F)F)c(-c2ccccc2C2CC2)n1)c1cccc(N2CC(O)C2)n1 [Example 208, N-(6-(2-cyclopropylphenyl)-5-(trifluoromethyl)pyridin-2-yl)-6-(3-hydroxyazetidin-1-yl)pyridine-2-sulfonamide]	607%	1380 nM	88.1%	5.2 nM
COc1ccc(F)cc1-c1nc(NS(=O)(=O)c2cccc(N3CC(O)C3)n2)ccc1C(F)(F)F [Example 209, N-(6-(5-fluoro-2-methoxyphenyl)-5-(trifluoromethyl)pyridin-2-yl)-6-(3-hydroxyazetidin-1-yl)pyridine-2-sulfonamide]	231%	2700 nM	95.6%	139 nM
Cc1cccc(C)c1-c1nc(NS(=O)(=O)c2cccc(N3CC(C)(O)C3)n2)ccc1Cl [Example 210, N-(5-chloro-6-(2,6-dimethylphenyl)pyridin-2-yl)-6-(3-hydroxy-3-methylazetidin-1-yl)pyridine-2-sulfonamide]	507%	716 nM	68.7%	2.2 nM
Cc1cccc(C)c1-c1nc(NS(=O)(=O)c2cccc(N3CC(O)(C4CC4)C3)n2)ccc1Cl [Example 211, N-(5-chloro-6-(2,6-dimethylphenyl)pyridin-2-yl)-6-(3-cyclopropyl-3-hydroxyazetidin-1-yl)pyridine-2-sulfonamide]		1760 nM	71.6%	8.6 nM
Cc1ccc(C(F)(F)F)cc1-c1nc(NS(=O)(=O)c2cccc(N3CC(C)(O)C3)n2)ccc1Cl [Example 212, N-(5-chloro-6-(2-methyl-5-(trifluoromethyl)phenyl)pyridin-2-yl)-6-(3-hydroxy-3-methylazetidin-1-yl)pyridine-2-sulfonamide]	378%	1820 nM	68.0%	82 nM
CC1(O)CN(c2cccc(S(=O)(=O)Nc3ccc(Cl)c(-c4ccc(F)cc4Cl)n3)n2)C1 [Example 213, N-(5-chloro-6-(2-chloro-4-fluorophenyl)pyridin-2-yl)-6-(3-hydroxy-3-methylazetidin-1-yl)pyridine-2-sulfonamide]	224%	2490 nM	78.0%	47.8 nM
O=S(=O)(Nc1ccc(Cl)c(-c2ccc(F)cc2Cl)n1)c1cccc(N2CC(O)C2)n1 [Example 214, N-(5-chloro-6-(2-chloro-4-fluorophenyl)pyridin-2-yl)-6-(3-hydroxyazetidin-1-yl)pyridine-2-sulfonamide]	256%	2030 nM	71.1%	51.9 nM
Cc1c(F)cccc1-c1nc(NS(=O)(=O)c2cccc(N3CC(C)(O)C3)n2)ccc1C(F)(F)F [Example 215, N-(6-(3-fluoro-2-methylphenyl)-5-(trifluoromethyl)pyridin-2-yl)-6-(3-hydroxy-3-methylazetidin-1-yl)pyridine-2-sulfonamide]	303%	2100 nM	66.4%	4.7 nM
Cc1c(F)cccc1-c1nc(NS(=O)(=O)c2cccc(N3CC(O)C3)n2)ccc1C(F)(F)F [Example 216, N-(6-(3-fluoro-2-methylphenyl)-5-(trifluoromethyl)pyridin-2-yl)-6-(3-hydroxyazetidin-1-yl)pyridine-2-sulfonamide]	446%	1710 nM	82.1%	4.8 nM
Cc1cc(F)ccc1-c1nc(NS(=O)(=O)c2cccc(N3CC(C)(O)C3)n2)ccc1C(F)(F)F [Example 217, N-(6-(4-fluoro-2-methylphenyl)-5-(trifluoromethyl)pyridin-2-yl)-6-(3-hydroxy-3-methylazetidin-1-yl)pyridine-2-sulfonamide]	157%	308 nM	66.3%	38 nM
Cc1cc(F)ccc1-c1nc(NS(=O)(=O)c2cccc(N3CC(O)C3)n2)ccc1C(F)(F)F [Example 218, N-(6-(4-fluoro-2-methylphenyl)-5-(trifluoromethyl)pyridin-2-yl)-6-(3-hydroxyazetidin-1-yl)pyridine-2-sulfonamide]	465%	1750 nM	59.5%	23 nM
Cc1ccc(F)cc1-c1nc(NS(=O)(=O)c2cccc(N3CC(C)(O)C3)n2)ccc1C(F)(F)F [Example 219, N-(6-(5-fluoro-2-methylphenyl)-5-(trifluoromethyl)pyridin-2-yl)-6-(3-hydroxy-3-methylazetidin-1-yl)pyridine-2-sulfonamide]	711%	1600 nM	119.0%	11.1 nM
Cc1ccc(F)cc1-c1nc(NS(=O)(=O)c2cccc(N3CC(O)C3)n2)ccc1C(F)(F)F [Example 220, N-(6-(5-fluoro-2-methylphenyl)-5-(trifluoromethyl)pyridin-2-yl)-6-(3-hydroxyazetidin-1-yl)pyridine-2-sulfonamide]	902%	1610 nM	58.6%	3.2 nM
CC1(O)CN(c2cccc(S(=O)(=O)Nc3ccc(C(F)(F)F)c(-c4ccccc4Cl)n3)n2)C1 [Example 221, N-(6-(2-chlorophenyl)-5-(trifluoromethyl)pyridin-2-yl)-6-(3-hydroxy-3-methylazetidin-1-yl)pyridine-2-sulfonamide]	552%	1320 nM	63.5%	7 nM
O=S(=O)(Nc1ccc(C(F)(F)F)c(-c2ccccc2Cl)n1)c1cccc(N2CC(O)C2)n1 [Example 222, N-(6-(2-chlorophenyl)-5-(trifluoromethyl)pyridin-2-yl)-6-(3-hydroxyazetidin-1-yl)pyridine-2-sulfonamide]	427%	1710 nM	61.1%	10.6 nM
Cc1ccc(C(F)(F)F)cc1-c1nc(NS(=O)(=O)c2cccc(N3CC(O)C3)n2)ccc1Cl [Example 223, N-(5-chloro-6-(2-methyl-5-(trifluoromethyl)phenyl)pyridin-2-yl)-6-(3-hydroxyazetidin-1-yl)pyridine-2-sulfonamide]	427%	1920 nM	59.9%	14.4 nM

Source: US11066369B2, “N-(pyridin-2-yl)pyridine-sulfonamide derivatives and their use in the treatment of disease” (Novartis AG, priority 2016, dated 2021)
